This is an account of results in PubChem BioAssay (NCI).

Each structure is given as a SMILES string.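 Where inhibition never reached the appropriate level, the endpoint shown equals the highest concentration tested. Otherwise, values were interpolated linearly from a five-concentration, 48-hour dose response in 96-well plates. TGI marks complete inhibition of growth.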

Experiment in all cases: NCI anticancer screen, dose series, 48 h
Test [1] has as its system SR leukemia.
The test system of test [2] is SNB-75 CNS.
In test [3] the test system is HCT-116 colon.
For test [4], the system named is U251 CNS.
Test [5] relates to NCI/ADR-RES ovarian.
The test system of test [6] is 786-0 renal.
Test [7] concerns HOP-92 NSCLC.
For test [8], the system named is RXF 393 renal.
The test system of test [9] is OVCAR-8 ovarian.
In test [10] the test system is NCI-H23 lung.
Test [11] relates to MCF7 breast.

Turning to `COc1ccc2c(c1)-c1nc(=S)n(CCN(C)C)c3ccc([N+](=O)[O-])c(c13)N2`, the TGI in test [1] was found to be 2.07 µM; in [2] it was 2.7 µM; in test [3], 1.56 µM; in [4] it was 2.44 µM; in test [5] it was 3.61 µM; in test [6] it was 1.8 µM. The TGI in test [7] was 27.7 µM; in [8], 3.3 µM; in [9] it was 2.2 µM; in test [10], 17.9 µM; in test [11], 3.43 µM.

Take `OC(CCN1CCN(CCOC(c2ccc(F)cc2)c2ccc(F)cc2)CC1)c1ccc(Br)cc1` (stereo unspecified): the TGI in test [1] turned out to be 4.13 µM; in test [2], 23.7 µM; in [3], 7.84 µM; in [4], 16.4 µM; in [5] it was 7.67 µM; in test [6], 7.07 µM. The TGI in [7] came to 13.7 µM; in test [8], 10 µM; in [9] it was 4.1 µM; in [10] it was 18.9 µM; in test [11], 9.85 µM.

Take `CCOC(=O)OC1(c2ccccc2)CCN(C)CC1`: the TGI in [1], in [2], in test [3], in test [4], in test [5] and in test [6] was over 100 µM in each case. For the same compound, the TGI in [7], in test [8], in test [9], in test [10] and in test [11] was over 100 µM throughout.

With `Cc1nn(C(=O)c2ccccc2O)c2c1C(c1ccc([N+](=O)[O-])cc1)SC(N)=N2` (stereo unspecified), the TGI in [1] was over 10 µM; in [2], over 8.41 µM; in [3], over 10 µM; in test [4] it was over 10 µM; in test [5], over 10 µM; in [6], over 10 µM. Further, the TGI in test [7], in test [8], in [9], in test [10] and in test [11] was over 10 µM in each case.

With `CC(C)NC(=O)OCc1c(COC(=O)NC(C)C)n(C)c2c1ccc1cc(Cl)c(Cl)cc12`, the TGI in [1] was 30.6 µM; in test [2], 28.4 µM; in test [3], 24 µM; in [4], 29.3 µM; in test [5] it was 36.8 µM; in [6], 20.5 µM. Also, the TGI in test [7] was determined as 24.3 µM; in [8] it was 25 µM; in [9] it was 23.8 µM; in test [10], 31.1 µM; in [11], 14.9 µM.

For the compound `CCOC(=O)c1c(-c2ccc(OC)cc2)c(C#N)c(=S)n(C2OC(CO)C(O)C(O)C2O)c1C` (stereo unspecified), the TGI in [1], in [2], in test [3], in test [4], in test [5] and in [6] was over 100 µM throughout. Besides, the TGI in test [7], in test [8], in test [9], in test [10] and in test [11] was over 100 µM each time.

As for `COc1ccc(C(=C2C(=O)OC(=O)C2=C(C)C)c2ccc(OC)cc2)cc1`, the TGI in [1], in test [2], in [3], in test [4], in test [5] and in test [6] was over 100 µM throughout. For the same compound, the TGI in test [7], in test [8], in test [9], in test [10] and in test [11] was over 100 µM each time.

`O=C1C=CC(=O)c2c(O)c(N3CCN(c4ncccn4)CC3)c(Cl)c(O)c21`: the TGI in test [1] came to 37.8 µM; in [2], 21.8 µM; in test [3], 3.14 µM; in [4] it was 12 µM; in test [5] it was 8.69 µM; in test [6], 3.1 µM. In addition, the TGI turned out to be 4.72 µM in test [7]; 3.51 µM in test [8]; 6.37 µM in test [9]; 4.59 µM in [10]; 3.32 µM in test [11].

Consider `Brc1ccc(/C(N=N/C(=N\Sc2ccccc2)c2ccc(Br)cc2)=N/Sc2ccccc2)cc1`, for which the TGI in test [1], in test [2], in test [3], in test [4], in test [5] and in test [6] was over 100 µM throughout. The TGI in test [7], in test [8], in test [9], in test [10] and in [11] was over 100 µM in each case.

On to `CC(=O)Nc1ccc2c(c1)nc1c3ccccc3ccn21`, for which the TGI in [1], in test [2], in test [3], in test [4], in test [5] and in [6] was over 100 µM in each case. For the same compound, the TGI in [7], in test [8], in [9], in test [10] and in test [11] was over 100 µM each time.

For `Oc1ccc(C[C@@H]2CN[C@H](Cc3ccc(O)c(Br)c3)CN2)cc1`, the TGI in test [1], in [2], in [3], in test [4], in test [5] and in test [6] was over 100 µM throughout. The TGI in test [7], in test [8], in test [9], in [10] and in test [11] was over 100 µM throughout.
